In assay [1] the target is T1, Streptokinase A (Streptococcus pyogenes serotype M1, UniProt P10520).
T1 sequence (P10520 whole entry): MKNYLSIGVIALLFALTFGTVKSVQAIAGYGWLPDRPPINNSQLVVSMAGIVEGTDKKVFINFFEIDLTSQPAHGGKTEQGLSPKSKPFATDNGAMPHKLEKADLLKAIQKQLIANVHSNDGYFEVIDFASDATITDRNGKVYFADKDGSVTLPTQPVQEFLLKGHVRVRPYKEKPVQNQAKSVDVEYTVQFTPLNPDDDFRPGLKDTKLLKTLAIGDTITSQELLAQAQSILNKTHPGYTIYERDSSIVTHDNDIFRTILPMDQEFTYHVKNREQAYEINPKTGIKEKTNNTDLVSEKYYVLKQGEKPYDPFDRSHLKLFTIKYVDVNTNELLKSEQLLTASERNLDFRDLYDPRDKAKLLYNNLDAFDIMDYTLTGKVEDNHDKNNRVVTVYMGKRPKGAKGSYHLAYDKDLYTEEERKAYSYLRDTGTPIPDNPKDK
The assay can be described thus: viability-normalized secreted streptokinase activity reduction – plasminogen activation absorbance, OD405, dose response (AID 1914).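 Also: secreted streptokinase activity via plasminogen activation per viability signal from cell pellet.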 Format: functional, Streptococcus pyogenes M1 GAS.

The test system of assay [2] is Streptococcus. The assay can be described thus: GAS UMAA2166 growth inhibition – luminescence, BacTiterGlo, counter-screen for streptokinase expression inhibitor project, dose response (AID 1915).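 Also: potency for reduction of bacterial viability or growth.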 It is filed as functional, organism-based. Background: A counterscreen serves to expose hits that act by an unwanted route or on another target.
The target in assay [3] is T2, Caspase-3 (Homo sapiens, UniProt P42574).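 Also: Dose-response selectivity test against caspase-3 for candidate inhibitors of sentrin-specific proteases (SENPs).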
T2 sequence (P42574 whole entry): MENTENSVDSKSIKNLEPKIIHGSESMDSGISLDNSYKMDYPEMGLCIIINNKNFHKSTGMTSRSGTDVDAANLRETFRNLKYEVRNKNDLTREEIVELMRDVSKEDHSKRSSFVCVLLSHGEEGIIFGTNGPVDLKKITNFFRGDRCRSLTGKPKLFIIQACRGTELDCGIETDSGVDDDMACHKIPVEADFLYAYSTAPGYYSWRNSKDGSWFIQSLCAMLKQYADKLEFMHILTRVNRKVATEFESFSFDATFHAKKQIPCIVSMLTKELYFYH
Format: functional.

Assay [4] has as its target T3, Sentrin-specific protease 6 (Homo sapiens, UniProt Q9GZR1).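 Also: Luminescence-based dose-response confirmatory assay of SENP6 inhibition, following up an ultra-high-throughput screen.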
T3 sequence (Q9GZR1 whole entry): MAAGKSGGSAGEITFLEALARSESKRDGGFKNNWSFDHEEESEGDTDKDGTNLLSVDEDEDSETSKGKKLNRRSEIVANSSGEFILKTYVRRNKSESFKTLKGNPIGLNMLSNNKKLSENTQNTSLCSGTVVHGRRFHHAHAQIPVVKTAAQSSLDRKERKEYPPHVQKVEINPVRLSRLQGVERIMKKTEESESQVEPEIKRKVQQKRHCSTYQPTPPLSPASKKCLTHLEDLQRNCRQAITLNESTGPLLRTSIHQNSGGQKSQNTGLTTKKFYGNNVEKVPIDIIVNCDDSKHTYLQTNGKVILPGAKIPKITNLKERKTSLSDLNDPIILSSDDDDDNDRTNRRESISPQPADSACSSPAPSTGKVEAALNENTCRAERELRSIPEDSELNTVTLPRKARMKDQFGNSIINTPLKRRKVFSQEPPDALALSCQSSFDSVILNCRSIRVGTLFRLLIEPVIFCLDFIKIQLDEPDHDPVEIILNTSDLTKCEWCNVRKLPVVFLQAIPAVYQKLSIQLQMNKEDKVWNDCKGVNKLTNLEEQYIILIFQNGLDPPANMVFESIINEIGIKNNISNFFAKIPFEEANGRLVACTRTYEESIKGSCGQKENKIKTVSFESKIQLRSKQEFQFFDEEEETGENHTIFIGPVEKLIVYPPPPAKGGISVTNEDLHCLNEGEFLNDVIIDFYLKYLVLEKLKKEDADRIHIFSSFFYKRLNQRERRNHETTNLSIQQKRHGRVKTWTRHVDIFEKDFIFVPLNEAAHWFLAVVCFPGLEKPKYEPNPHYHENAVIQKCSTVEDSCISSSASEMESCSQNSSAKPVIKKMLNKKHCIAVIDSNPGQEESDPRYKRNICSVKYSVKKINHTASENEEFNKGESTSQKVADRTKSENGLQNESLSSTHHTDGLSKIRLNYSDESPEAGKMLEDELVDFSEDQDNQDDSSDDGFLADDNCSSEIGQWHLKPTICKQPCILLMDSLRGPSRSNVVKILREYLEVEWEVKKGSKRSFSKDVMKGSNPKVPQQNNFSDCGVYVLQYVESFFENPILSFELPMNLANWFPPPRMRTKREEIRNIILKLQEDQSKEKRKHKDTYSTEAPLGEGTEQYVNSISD
Format: functional.

Assay [5] concerns the target T4, Sentrin-specific protease 8 (Homo sapiens, UniProt Q96LD8).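 Also: luminescence read-out of SENP8 inhibition, dose-response confirmation following an ultra-high-throughput screen.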
T4 sequence (Q96LD8 whole entry): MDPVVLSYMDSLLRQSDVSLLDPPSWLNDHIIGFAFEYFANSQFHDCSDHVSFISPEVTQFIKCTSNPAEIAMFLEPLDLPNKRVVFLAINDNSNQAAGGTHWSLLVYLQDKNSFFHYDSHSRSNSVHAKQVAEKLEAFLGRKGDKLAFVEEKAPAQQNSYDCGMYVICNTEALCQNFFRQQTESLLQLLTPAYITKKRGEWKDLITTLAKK
Format: functional.

The subject of assay [6] is Streptococcus sp. 'group A'. The assay can be described thus: Streptococcus pyogenes SK(-)GAS viability under kanamycin – luminescence, BacTiterGlo, confirmation, counter-screen for streptokinase expression inhibitor project, dose response (AID 1900). Format: functional, organism-based.
Assay [7] has as its target Tyrosyl-DNA phosphodiesterase 2 (Homo sapiens, UniProt O95551). The assay can be described thus: potency against TDP2 phosphodiesterase activity – biochemical, epi absorbance, IC50, dose response (AID 743297).

For one compound, EC50 and IC50 results are on record in ChEMBL document CHEMBL1201862, “PubChem BioAssay data set” (2004).

Broadly, the EC50 is the concentration that produces a half-maximal response. One may read the IC50 as the concentration that gives 50% inhibition.

The source made the active and inactive calls.

Tyrosyl-DNA phosphodiesterase 2, sequence (O95551 whole entry): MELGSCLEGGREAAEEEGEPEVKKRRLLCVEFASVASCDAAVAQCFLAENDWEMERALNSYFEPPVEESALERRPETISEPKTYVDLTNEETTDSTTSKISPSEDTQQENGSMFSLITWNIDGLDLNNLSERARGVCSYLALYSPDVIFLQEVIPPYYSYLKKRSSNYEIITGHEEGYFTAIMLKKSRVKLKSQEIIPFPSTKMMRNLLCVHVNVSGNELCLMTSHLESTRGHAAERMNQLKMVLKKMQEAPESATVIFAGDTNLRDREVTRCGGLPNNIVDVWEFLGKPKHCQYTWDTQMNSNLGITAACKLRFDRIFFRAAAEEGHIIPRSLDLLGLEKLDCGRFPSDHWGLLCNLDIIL

As to `Clc1ccc(C2=CSC3=Nc4cccc5cccc(c45)N23)cc1`, the results for the EC50 in assay [1], in assay [2] and in assay [6] were > 150 µM (not active), 17.1 µM (active) and 4.17 µM (active), respectively. The IC50 in assay [3] was 7.93 µM (active); in assay [4] it was 1.89 µM (active); in assay [5] it was 2.04 µM (active); in assay [7], > 128 µM (inactive).
